According to patent publication US20100099561A1, “HETEROBICYCLIC ALKYLTHIO-BRIDGED ISOXAZOLINES” (E.I. DU PONT DE NEMOURS AND COMPANY, priority 2008, published 2010):

Assays:
Format in all cases: in vivo
[1] = system: pigweed (Amaranthus retroflexus); experiment: Test A postemergence, pigweed; conditions: 0 to 100 scale (0 no effect, 100 complete control)
Summary of the method: (§1)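 Species planted together in a loam soil and sand blend received compound either as a preemergence soil spray or as a postemergence treatment when 2–10 cm tall with one to two leaves. About ten days later, injury was visually rated relative to untreated plants on a 0–100 scale.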

[2] = system: pigweed (Amaranthus retroflexus); experiment: Test A preemergence, pigweed; conditions: 0 to 100 scale (0 no effect, 100 complete control)
Summary of the method: as §1

[3] = system: umbrella sedge (Cyperus difformis); experiment: Test B flooded paddy test, umbrella sedge; conditions: Flood, scale 0 to 100
Summary of the method: (§2)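 Compounds were added directly to paddy water over 2-leaf-stage plants in pots flooded 3 cm above soil, water depth maintained. Visual injury scored against controls after 13 to 15 days in greenhouse, 0 (none) to 100 (complete control); dash indicates no result.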

[4] = system: velvetleaf (Abutilon theophrasti); experiment: Test A preemergence, velvetleaf; conditions: 0 to 100 scale (0 no effect, 100 complete control)
Summary of the method: as §1

[5] = system: large crabgrass (Digitaria sanguinalis); experiment: Test A postemergence, large crabgrass; conditions: 0 to 100 scale (0 no effect, 100 complete control)
Summary of the method: as §1

[6] = system: giant foxtail (Setaria faberi); experiment: Test A preemergence, giant foxtail; conditions: 0 to 100 scale (0 no effect, 100 complete control)
Summary of the method: as §1

[7] = system: velvetleaf (Abutilon theophrasti); experiment: Test A postemergence, velvetleaf; conditions: 0 to 100 scale (0 no effect, 100 complete control)
Summary of the method: as §1

[8] = system: barnyardgrass (Echinochloa crus-galli); experiment: Test A preemergence, barnyardgrass; conditions: 0 to 100 scale (0 no effect, 100 complete control)
Summary of the method: as §1

[9] = system: barnyardgrass (Echinochloa crus-galli); experiment: Test B flooded paddy test, barnyardgrass; conditions: Flood
Summary of the method: as §2

[10] = system: wheat (Triticum aestivum); experiment: Test A postemergence, wheat; conditions: 0 to 100 scale (0 no effect, 100 complete control)
Summary of the method: as §1

rice (Oryza sativa) = experiment: Test B flooded paddy test, rice; conditions: Flood, scale 0 to 100
Summary of the method: as §2

[11] = system: large crabgrass (Digitaria sanguinalis); experiment: Test A preemergence, large crabgrass; conditions: 0 to 100 scale (0 no effect, 100 complete control)
Summary of the method: as §1

[12] = system: morningglory (Ipomoea spp.); experiment: Test A postemergence, morningglory; conditions: 0 to 100 scale (0 no effect, 100 complete control)
Summary of the method: as §1

corn (Zea mays) [13] = experiment: Test A postemergence, corn; conditions: 0 to 100 scale (0 no effect, 100 complete control)
Summary of the method: as §1

[14] = system: morningglory (Ipomoea spp.); experiment: Test A preemergence, morningglory; conditions: 0 to 100 scale (0 no effect, 100 complete control)
Summary of the method: as §1

[15] = system: barnyardgrass (Echinochloa crus-galli); experiment: Test A postemergence, barnyardgrass; conditions: 0 to 100 scale (0 no effect, 100 complete control)
Summary of the method: as §1

[16] = system: giant foxtail (Setaria faberi); experiment: Test A postemergence, giant foxtail; conditions: 0 to 100 scale (0 no effect, 100 complete control)
Summary of the method: as §1

[17] = system: ducksalad (Heteranthera limosa); experiment: Test B flooded paddy test, ducksalad; conditions: Flood, scale 0 to 100
Summary of the method: as §2

corn (Zea mays) [18] = experiment: Test A preemergence, corn; conditions: 0 to 100 scale (0 no effect, 100 complete control)
Summary of the method: as §1

[19] = system: wheat (Triticum aestivum); experiment: Test A preemergence, wheat; conditions: 0 to 100 scale (0 no effect, 100 complete control)
Summary of the method: as §1

[20] = 250 g ai/ha, scale 0 to 100 (0 no effect, 100 complete control)

SMILES: CC1(C)CC(S(=O)(=O)Cc2c(C(F)(F)F)nc3ccon3c2=O)=NO1 [Compound 42]
- Plant response rating, Pigweed ([1]; 125 g ai/ha): 0
- Plant response rating, Pigweed ([1]; 500 g ai/ha): 10
- Plant response rating, Pigweed ([2]; 125 g ai/ha): 0
- Plant response rating, Pigweed ([2]; 500 g ai/ha): 30
- Plant response rating, Sedge, Umbrella ([3]; 31 g ai/ha): 0
- Plant response rating, Sedge, Umbrella ([3]; 62 g ai/ha): 0
- Plant response rating, Sedge, Umbrella ([3]; 125 g ai/ha): 0
- Plant response rating, Sedge, Umbrella ([3]; 250 g ai/ha): 0
- Plant response rating, Velvetleaf ([4]; 125 g ai/ha): 0
- Plant response rating, Velvetleaf ([4]; 500 g ai/ha): 0
- Plant response rating, Crabgrass, Large ([5]; 125 g ai/ha): 50
- Plant response rating, Crabgrass, Large ([5]; 500 g ai/ha): 70
- Plant response rating, Foxtail, Giant ([6]; 125 g ai/ha): 60
- Plant response rating, Foxtail, Giant ([6]; 500 g ai/ha): 90
- Plant response rating, Velvetleaf ([7]; 125 g ai/ha): 0
- Plant response rating, Velvetleaf ([7]; 500 g ai/ha): 0
- Plant response rating, Barnyardgrass ([8]; 125 g ai/ha): 30
- Plant response rating, Barnyardgrass ([8]; 500 g ai/ha): 80
- Plant response rating, Barnyardgrass ([9]; 31 g ai/ha, scale 0 to 100): 0
- Plant response rating, Barnyardgrass ([9]; 62 g ai/ha, scale 0 to 100): 0
- Plant response rating, Barnyardgrass ([9]; 125 g ai/ha, scale 0 to 100): 0
- Plant response rating, Barnyardgrass [9, 20]: 0
- Plant response rating, Wheat ([10]; 125 g ai/ha): 0
- Plant response rating, Wheat ([10]; 500 g ai/ha): 20
- Plant response rating, Rice (rice (Oryza sativa); 31 g ai/ha): 0
- Plant response rating, Rice (rice (Oryza sativa); 62 g ai/ha): 0
- Plant response rating, Rice (rice (Oryza sativa); 125 g ai/ha): 0
- Plant response rating, Rice (rice (Oryza sativa); 250 g ai/ha): 0
- Plant response rating, Crabgrass, Large ([11]; 125 g ai/ha): 50
- Plant response rating, Crabgrass, Large ([11]; 500 g ai/ha): 80
- Plant response rating, Morningglory ([12]; 125 g ai/ha): 0
- Plant response rating, Morningglory ([12]; 500 g ai/ha): 0
- Plant response rating, Corn (corn (Zea mays) [13]; 125 g ai/ha): 0
- Plant response rating, Corn (corn (Zea mays) [13]; 500 g ai/ha): 0
- Plant response rating, Morningglory ([14]; 125 g ai/ha): 0
- Plant response rating, Morningglory ([14]; 500 g ai/ha): 0
- Plant response rating, Barnyardgrass ([15]; 125 g ai/ha): 70
- Plant response rating, Barnyardgrass ([15]; 500 g ai/ha): 80
- Plant response rating, Foxtail, Giant ([16]; 125 g ai/ha): 60
- Plant response rating, Foxtail, Giant ([16]; 500 g ai/ha): 80
- Plant response rating, Ducksalad ([17]; 31 g ai/ha): 0
- Plant response rating, Ducksalad ([17]; 62 g ai/ha): 0
- Plant response rating, Ducksalad ([17]; 125 g ai/ha): 0
- Plant response rating, Ducksalad ([17]; 250 g ai/ha): 0
- Plant response rating, Corn (corn (Zea mays) [18]; 125 g ai/ha): 0
- Plant response rating, Corn (corn (Zea mays) [18]; 500 g ai/ha): 0
- Plant response rating, Wheat ([19]; 125 g ai/ha): 0
- Plant response rating, Wheat ([19]; 500 g ai/ha): 0

SMILES: CC1(C)CC([S+]([O-])Cc2c(C(F)(F)F)nc3ccon3c2=O)=NO1 (stereo not drawn) [Compound 43]
- Plant response rating, Pigweed ([1]; 125 g ai/ha): 0
- Plant response rating, Pigweed ([1]; 500 g ai/ha): 0
- Plant response rating, Pigweed ([2]; 125 g ai/ha): 0
- Plant response rating, Pigweed ([2]; 500 g ai/ha): 0
- Plant response rating, Sedge, Umbrella ([3]; 31 g ai/ha): 0
- Plant response rating, Sedge, Umbrella ([3]; 62 g ai/ha): 0
- Plant response rating, Sedge, Umbrella ([3]; 125 g ai/ha): 20
- Plant response rating, Sedge, Umbrella ([3]; 250 g ai/ha): 30
- Plant response rating, Velvetleaf ([4]; 125 g ai/ha): 0
- Plant response rating, Velvetleaf ([4]; 500 g ai/ha): 0
- Plant response rating, Crabgrass, Large ([5]; 125 g ai/ha): 10
- Plant response rating, Crabgrass, Large ([5]; 500 g ai/ha): 60
- Plant response rating, Foxtail, Giant ([6]; 125 g ai/ha): 0
- Plant response rating, Foxtail, Giant ([6]; 500 g ai/ha): 80
- Plant response rating, Velvetleaf ([7]; 125 g ai/ha): 0
- Plant response rating, Velvetleaf ([7]; 500 g ai/ha): 0
- Plant response rating, Barnyardgrass ([8]; 125 g ai/ha): 10
- Plant response rating, Barnyardgrass ([8]; 500 g ai/ha): 70
- Plant response rating, Barnyardgrass ([9]; 31 g ai/ha, scale 0 to 100): 0
- Plant response rating, Barnyardgrass ([9]; 62 g ai/ha, scale 0 to 100): 0
- Plant response rating, Barnyardgrass ([9]; 125 g ai/ha, scale 0 to 100): 0
- Plant response rating, Barnyardgrass [9, 20]: 0
- Plant response rating, Wheat ([10]; 125 g ai/ha): 0
- Plant response rating, Wheat ([10]; 500 g ai/ha): 0
- Plant response rating, Rice (rice (Oryza sativa); 31 g ai/ha): 0
- Plant response rating, Rice (rice (Oryza sativa); 62 g ai/ha): 0
- Plant response rating, Rice (rice (Oryza sativa); 125 g ai/ha): 0
- Plant response rating, Rice (rice (Oryza sativa); 250 g ai/ha): 0
- Plant response rating, Crabgrass, Large ([11]; 125 g ai/ha): 0
- Plant response rating, Crabgrass, Large ([11]; 500 g ai/ha): 60
- Plant response rating, Morningglory ([12]; 125 g ai/ha): 0
- Plant response rating, Morningglory ([12]; 500 g ai/ha): 40
- Plant response rating, Corn (corn (Zea mays) [13]; 125 g ai/ha): 0
- Plant response rating, Corn (corn (Zea mays) [13]; 500 g ai/ha): 40
- Plant response rating, Morningglory ([14]; 125 g ai/ha): 0
- Plant response rating, Morningglory ([14]; 500 g ai/ha): 0
- Plant response rating, Barnyardgrass ([15]; 125 g ai/ha): 40
- Plant response rating, Barnyardgrass ([15]; 500 g ai/ha): 70
- Plant response rating, Foxtail, Giant ([16]; 125 g ai/ha): 30
- Plant response rating, Foxtail, Giant ([16]; 500 g ai/ha): 70
- Plant response rating, Ducksalad ([17]; 31 g ai/ha): 0
- Plant response rating, Ducksalad ([17]; 62 g ai/ha): 0
- Plant response rating, Ducksalad ([17]; 125 g ai/ha): 0
- Plant response rating, Ducksalad ([17]; 250 g ai/ha): 25
- Plant response rating, Corn (corn (Zea mays) [18]; 125 g ai/ha): 0
- Plant response rating, Corn (corn (Zea mays) [18]; 500 g ai/ha): 0
- Plant response rating, Wheat ([19]; 125 g ai/ha): 0
- Plant response rating, Wheat ([19]; 500 g ai/ha): 0
